Laboratory results from PubChem BioAssay (NCI).
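Briefly, cells in 96-well plates were exposed to five compound concentrations for 48 h, and endpoints were estimated by linear interpolation. The concentration for 50% growth inhibition is given as GI50. TGI is the concentration that stops growth completely.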

Key:
Experiment in all cases: NCI anticancer screen, dose series, 48 h
[1] = tested on: CCRF-CEM leukemia
[2] = tested on: MCF7 breast
[3] = tested on: HT29 colon
[4] = tested on: T-47D breast
[5] = tested on: OVCAR-3 ovarian
[6] = tested on: 786-0 renal
[7] = tested on: NCI/ADR-RES ovarian
[8] = tested on: SF-295 CNS
[9] = tested on: UACC-257 melanoma
[10] = tested on: SK-MEL-5 melanoma

## O=C1NC(N2CCOCC2)=N/C1=C\c1ccc(O)cc1
[1]
  TGI: > 100 µM
[2]
  TGI: > 100 µM
[3]
  TGI: > 100 µM
[4]
  TGI: > 100 µM
[5]
  TGI: > 100 µM
[6]
  TGI: > 100 µM
[7]
  TGI: > 100 µM
[8]
  TGI: > 100 µM
[9]
  TGI: > 100 µM

## O=C(OCc1ccccc1)N1CCNCCNCCN(C(=O)OCc2ccccc2)CCNCC1
[1]
  TGI: 65.9 µM
[2]
  TGI: 32 µM
[10]
  TGI: 27.1 µM
[3]
  TGI: 32.9 µM
[4]
  TGI: 41 µM
[5]
  TGI: > 100 µM
[6]
  TGI: 28.4 µM
[7]
  TGI: > 100 µM
[8]
  TGI: 33.7 µM
[9]
  TGI: 32 µM

## O=c1[nH]c(=O)n(C2OC(CO)C(O)C2O)cc1OCCCc1ccccc1 (stereo unspecified)
[1]
  TGI: > 100 µM
[2]
  TGI: > 100 µM
[10]
  TGI: > 100 µM
[3]
  TGI: > 100 µM
[4]
  TGI: > 100 µM
[5]
  TGI: > 100 µM
[6]
  TGI: > 100 µM
[7]
  TGI: > 100 µM
[8]
  TGI: > 100 µM
[9]
  TGI: > 100 µM

## O=[N+]([O-])/C(C(Cl)=C(Cl)Cl)=C(/Nc1cccc2cccnc12)n1nnc2ccccc21
[1]
  TGI: > 100 µM
[2]
  TGI: 46.3 µM
[3]
  TGI: 40.5 µM
[4]
  TGI: 41 µM
[5]
  TGI: 23.7 µM
[6]
  TGI: 43.8 µM
[7]
  TGI: 53.7 µM
[8]
  TGI: 42.2 µM
[9]
  TGI: > 100 µM

## O=c1[nH]nc(Cc2ccc(Cl)cc2)n1/N=C/c1ccc([N+](=O)[O-])o1
[1]
  TGI: > 37 µM
[2]
  TGI: > 36.8 µM
[10]
  TGI: > 38.5 µM
[3]
  TGI: > 41.1 µM
[4]
  TGI: > 77.6 µM
[5]
  TGI: 25.9 µM
[6]
  TGI: 11.1 µM
[7]
  TGI: > 35.5 µM
[8]
  TGI: 16.2 µM
[9]
  TGI: 9.3 µM

## NC(=O)CN1C=CCC(C(N)=O)=C1
[1]
  TGI: > 100 µM
[2]
  TGI: > 100 µM
[10]
  TGI: > 100 µM
[3]
  TGI: > 100 µM
[4]
  TGI: > 100 µM
[5]
  TGI: > 100 µM
[6]
  TGI: > 100 µM
[7]
  TGI: > 100 µM
[8]
  TGI: > 100 µM
[9]
  TGI: > 100 µM

## CCCCCCCCC#CCCCCCCCCCC[C@@H]1C(=O)O[C@H](C)[C@@H]1O (tested in a mixture with another compound)
[2]
  TGI: 50.5 µM
[10]
  TGI: 26.8 µM
[4]
  TGI: > 100 µM
[5]
  TGI: 38.6 µM
[6]
  TGI: 31.4 µM
[7]
  TGI: 23.8 µM
[8]
  TGI: 65.4 µM
[9]
  TGI: > 100 µM

## O=C(O)c1cccc(NC(C(=O)c2ccccc2)c2ccccc2)c1 (stereo unspecified)
[1]
  TGI: > 100 µM
[2]
  TGI: > 100 µM
[10]
  TGI: > 100 µM
[4]
  TGI: > 100 µM
[5]
  TGI: > 100 µM
[6]
  TGI: > 100 µM
[7]
  TGI: > 100 µM
[8]
  TGI: > 100 µM

## Oc1ccc(-c2nc3ccccc3s2)cc1
[1]
  TGI: > 100 µM
[2]
  TGI: > 100 µM
[3]
  TGI: > 100 µM
[4]
  TGI: 70 µM
[5]
  TGI: > 100 µM
[6]
  TGI: > 100 µM
[7]
  TGI: > 100 µM
[8]
  TGI: > 100 µM
[9]
  TGI: > 100 µM

## COc1ccccc1C1C(C#N)=C(N)Oc2n[nH]c(C)c21 (stereo unspecified)
[1]
  GI50: 22.8 µM
  TGI: > 100 µM
[2]
  GI50: > 100 µM
  TGI: > 100 µM
[10]
  GI50: 59 µM
  TGI: > 100 µM
[3]
  GI50: > 100 µM
  TGI: > 100 µM
[4]
  GI50: > 100 µM
  TGI: > 100 µM
[5]
  GI50: > 100 µM
  TGI: > 100 µM
[7]
  GI50: > 100 µM
  TGI: > 100 µM
[8]
  GI50: > 100 µM
  TGI: > 100 µM
[9]
  GI50: > 100 µM
  TGI: > 100 µM

## CC(C)(C)OC(=O)c1ccc(NCC2=C(Br)C(=O)C=CC2=O)cc1
[1]
  TGI: > 24.9 µM
[2]
  TGI: 48.4 µM
[10]
  TGI: 41.6 µM
[3]
  TGI: 33.9 µM
[4]
  TGI: 41.4 µM
[5]
  TGI: 27.7 µM
[6]
  TGI: 37.5 µM
[7]
  TGI: 62.9 µM
[8]
  TGI: > 100 µM
[9]
  TGI: 61.3 µM

## C#CCOC(=O)c1ccc(OC(C)=O)cc1
[1]
  TGI: > 100 µM
[2]
  TGI: > 100 µM
[10]
  TGI: > 100 µM
[4]
  TGI: > 100 µM
[5]
  TGI: > 100 µM
[6]
  TGI: > 100 µM
[7]
  TGI: > 100 µM
[8]
  TGI: > 100 µM
[9]
  TGI: > 100 µM

## O=C(Nc1nn[nH]n1)c1nc(-c2ccccc2)cc(=O)[nH]1
[1]
  TGI: > 100 µM
[2]
  TGI: > 100 µM
[10]
  TGI: > 100 µM
[3]
  TGI: > 100 µM
[4]
  TGI: > 100 µM
[5]
  TGI: > 100 µM
[6]
  TGI: > 100 µM
[7]
  TGI: > 100 µM
[8]
  TGI: > 100 µM
[9]
  TGI: > 100 µM

## Cc1nc(-c2cc3ccccc3oc2=O)cs1
[1]
  TGI: > 100 µM
[2]
  TGI: > 100 µM
[10]
  TGI: > 100 µM
[3]
  TGI: > 100 µM
[4]
  TGI: > 100 µM
[6]
  TGI: > 100 µM
[7]
  TGI: > 100 µM
[8]
  TGI: > 100 µM
[9]
  TGI: > 100 µM

## C[C@H](C1CC2(C)OC2(C)C(=O)O1)[C@H]1CC[C@H]2[C@@H]3[C@@H]4O[C@@H]4[C@@]4(O)CC=CC(=O)[C@]4(C)[C@H]3CC[C@]12C (stereo partly specified)
[2]
  TGI: > 50 µM
[10]
  TGI: > 50 µM
[3]
  TGI: > 50 µM
[4]
  TGI: > 50 µM
[5]
  TGI: > 50 µM
[6]
  TGI: > 50 µM
[7]
  TGI: > 50 µM
[8]
  TGI: > 50 µM
[9]
  TGI: > 50 µM

## CCOC1=C(c2ccccc2)N2CCCCC2O1 (stereo unspecified)
[1]
  TGI: > 72.4 µM
[2]
  TGI: 51.9 µM
[10]
  TGI: 4.54 µM
[3]
  TGI: 16.9 µM
[4]
  TGI: 6.82 µM
[5]
  TGI: > 44.5 µM
[6]
  TGI: > 100 µM
[7]
  TGI: > 96.4 µM
[8]
  TGI: 15.5 µM
[9]
  TGI: > 33.6 µM

## COC(NC(=O)Nc1ccccc1C)(C(F)(F)F)C(F)(F)F
[1]
  TGI: > 100 µM
[2]
  TGI: > 100 µM
[10]
  TGI: > 100 µM
[3]
  TGI: > 100 µM
[4]
  TGI: > 100 µM
[5]
  TGI: > 100 µM
[6]
  TGI: > 100 µM
[7]
  TGI: > 100 µM
[8]
  TGI: > 100 µM

## Cc1nc(Nc2ccccc2Cl)sc1C(=O)CC(=O)C(N)=O
[1]
  TGI: > 100 µM
[2]
  TGI: > 100 µM
[3]
  TGI: > 100 µM
[4]
  TGI: > 100 µM
[5]
  TGI: > 100 µM
[6]
  TGI: > 100 µM
[7]
  TGI: > 100 µM
[8]
  TGI: > 100 µM
[9]
  TGI: > 100 µM

## COc1cc2nc(-c3cccs3)nc(Nc3cccc(Cl)c3)c2cc1OC
[1]
  TGI: > 100 µM
[2]
  TGI: > 100 µM
[10]
  TGI: > 100 µM
[3]
  TGI: > 100 µM
[4]
  TGI: > 100 µM
[5]
  TGI: > 100 µM
[6]
  TGI: > 100 µM
[7]
  TGI: > 100 µM
[8]
  TGI: 69.2 µM
[9]
  TGI: > 100 µM

## CC(C)(C)C1=C(Br)C(O)(C(C)(C)C)OP1(=O)c1ccccc1 (stereo unspecified)
[1]
  TGI: > 100 µM
[2]
  TGI: 43.1 µM
[10]
  TGI: > 100 µM
[3]
  TGI: > 100 µM
[4]
  TGI: > 100 µM
[5]
  TGI: > 100 µM
[6]
  TGI: > 100 µM
[7]
  TGI: > 100 µM
[8]
  TGI: > 100 µM
[9]
  TGI: > 100 µM

## O=[Se](O)O
[1]
  TGI: > 100 µM
[2]
  TGI: > 100 µM
[10]
  TGI: 8.68 µM
[3]
  TGI: > 91.8 µM
[4]
  TGI: > 62.9 µM
[5]
  TGI: 10.7 µM
[6]
  TGI: 7.35 µM
[7]
  TGI: > 54.9 µM
[8]
  TGI: 1.7 µM
[9]
  TGI: > 100 µM

## CCOC(=O)c1cc(Br)c(-c2onc(C)c2Br)[nH]1
[1]
  TGI: > 100 µM
[2]
  TGI: > 100 µM
[10]
  TGI: > 100 µM
[3]
  TGI: > 100 µM
[4]
  TGI: > 100 µM
[5]
  TGI: > 100 µM
[6]
  TGI: 59.3 µM
[7]
  TGI: > 100 µM
[8]
  TGI: > 100 µM
[9]
  TGI: > 100 µM
